From ChEMBL document CHEMBL1201862, “PubChem BioAssay data set” (2004)
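Following 48 hours of exposure in 96-well plates, responses at five concentrations were used to interpolate endpoints linearly. GI50 is the concentration that inhibits growth by half.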 Calls of active or inactive are those of the source. Rule as the data show it: active = GI50 up to about 1.1 µM and inactive = higher.

Key:
Assay in all cases: NCI-60 cell line screen, 48 h
KM12 = tested on: KM12
HOP-92 = tested on: HOP-92
LOX IMVI = tested on: LOX IMVI
HCT-15 = tested on: HCT-15
NCI-H23 = tested on: NCI-H23
MCF7 = tested on: MCF7
SW-620 = tested on: SW-620
SR = tested on: SR
IGROV-1 = tested on: IGROV-1
SK-OV-3 = tested on: SK-OV-3
OVCAR-8 = tested on: OVCAR-8
DU-145 = tested on: DU-145
A498 = tested on: A498
HOP-62 = tested on: HOP-62
K562 = tested on: K562
HL-60 = tested on: HL-60
PC-3 = tested on: PC-3
RXF 393 = tested on: RXF 393
NCI-H226 = tested on: NCI-H226
SN12C = tested on: SN12C
SNB-19 = tested on: SNB-19
CAKI-1 = tested on: CAKI-1
HCT-116 = tested on: HCT-116
RPMI-8226 = tested on: RPMI-8226
SNB-75 = tested on: SNB-75
MDA-N = tested on: MDA-N
SK-MEL-28 = tested on: SK-MEL-28
COLO 205 = tested on: COLO 205
NCI-H522 = tested on: NCI-H522
MDA-MB-435 = tested on: MDA-MB-435
EKVX = tested on: EKVX
UACC-62 = tested on: UACC-62
UACC-257 = tested on: UACC-257
T47D = tested on: T47D
ACHN = tested on: ACHN
MDA-MB-231 = tested on: MDA-MB-231
Hs-578T = tested on: Hs-578T
OVCAR-3 = tested on: OVCAR-3
HT-29 = tested on: HT-29
U-251 = tested on: U-251
SF-268 = tested on: SF-268
Malme-3M = tested on: Malme-3M
MOLT-4 = tested on: MOLT-4
786-0 = tested on: 786-0
SK-MEL-5 = tested on: SK-MEL-5
BT-549 = tested on: BT-549
SK-MEL-2 = tested on: SK-MEL-2
SF-539 = tested on: SF-539
CCRF-CEM = tested on: CCRF-CEM
UO-31 = tested on: UO-31
SF-295 = tested on: SF-295
A549 = tested on: A549
OVCAR-4 = tested on: OVCAR-4
OVCAR-5 = tested on: OVCAR-5
TK-10 = tested on: TK-10
NCI/ADR-RES = tested on: NCI/ADR-RES
M14 = tested on: M14
HCC 2998 = tested on: HCC 2998
NCI-H460 = tested on: NCI-H460

COc1ccc(-c2nc(O)c3ccccc3n2)cc1
GI50 (KM12): > 100 µM (inactive) | GI50 (HOP-92): > 100 µM (inactive) | GI50 (LOX IMVI): 39.8 µM (inactive) | GI50 (HCT-15): 43.1 µM | GI50 (NCI-H23): 87.5 µM (inactive) | GI50 (MCF7): 35.9 µM (inactive) | GI50 (SW-620): > 100 µM (inactive) | GI50 (SR): 45.4 µM (inactive) | GI50 (IGROV-1): 29.1 µM (inactive) | GI50 (SK-OV-3): > 100 µM (inactive) | GI50 (OVCAR-8): 32.4 µM (inactive) | GI50 (DU-145): > 100 µM (inactive) | GI50 (A498): 47 µM (inactive) | GI50 (HOP-62): > 100 µM (inactive) | GI50 (K562): > 100 µM (inactive) | GI50 (HL-60): > 100 µM (inactive) | GI50 (PC-3): > 100 µM (inactive) | GI50 (RXF 393): > 100 µM (inactive) | GI50 (NCI-H226): 38.6 µM (inactive) | GI50 (SN12C): 61.2 µM (inactive) | GI50 (SNB-19): > 100 µM (inactive) | GI50 (CAKI-1): 76.6 µM (inactive) | GI50 (HCT-116): 77.1 µM (inactive) | GI50 (RPMI-8226): > 100 µM (inactive) | GI50 (SNB-75): 40.4 µM (inactive) | GI50 (MDA-N): > 100 µM (inactive) | GI50 (SK-MEL-28): 43.6 µM (inactive) | GI50 (COLO 205): > 100 µM (inactive) | GI50 (NCI-H522): 52.7 µM (inactive) | GI50 (MDA-MB-435): > 100 µM (inactive) | GI50 (EKVX): > 100 µM (inactive) | GI50 (UACC-62): 71.1 µM (inactive) | GI50 (UACC-257): > 100 µM (inactive) | GI50 (T47D): 84.5 µM (inactive) | GI50 (ACHN): > 10 µM (inactive) | GI50 (MDA-MB-231): 40.8 µM (inactive) | GI50 (Hs-578T): 2.44 µM (inactive) | GI50 (OVCAR-3): > 100 µM (inactive) | GI50 (HT-29): > 100 µM (inactive) | GI50 (U-251): 24.8 µM (inactive) | GI50 (SF-268): > 100 µM (inactive) | GI50 (Malme-3M): > 100 µM (inactive) | GI50 (MOLT-4): > 100 µM (inactive) | GI50 (786-0): 48.3 µM (inactive) | GI50 (SK-MEL-5): > 100 µM (inactive) | GI50 (BT-549): 83.9 µM (inactive) | GI50 (SK-MEL-2): > 100 µM (inactive) | GI50 (SF-539): 45.9 µM (inactive) | GI50 (CCRF-CEM): > 100 µM (inactive) | GI50 (UO-31): > 100 µM (inactive) | GI50 (SF-295): > 100 µM (inactive) | GI50 (A549): > 100 µM (inactive) | GI50 (OVCAR-4): 26.9 µM (inactive) | GI50 (OVCAR-5): > 100 µM (inactive) | GI50 (TK-10): > 100 µM (inactive) | GI50 (NCI/ADR-RES): 27.1 µM (inactive) | GI50 (M14): > 100 µM (inactive)

Cc1ccc(CCCCCOc2ccc(C3=NCCO3)cc2)s1
GI50 (KM12): > 100 µM (inactive) | GI50 (HCT-15): > 100 µM | GI50 (NCI-H23): > 100 µM (inactive) | GI50 (MCF7): > 100 µM (inactive) | GI50 (SW-620): > 100 µM (inactive) | GI50 (SR): 2.84 µM (inactive) | GI50 (IGROV-1): > 100 µM (inactive) | GI50 (SK-OV-3): > 100 µM (inactive) | GI50 (OVCAR-8): > 100 µM (inactive) | GI50 (DU-145): > 100 µM (inactive) | GI50 (A498): 1.81 µM (inactive) | GI50 (HOP-62): > 100 µM (inactive) | GI50 (K562): 9.29 µM (inactive) | GI50 (HL-60): > 100 µM (inactive) | GI50 (PC-3): > 100 µM (inactive) | GI50 (RXF 393): > 100 µM (inactive) | GI50 (NCI-H226): > 100 µM (inactive) | GI50 (SN12C): > 100 µM (inactive) | GI50 (SNB-19): > 100 µM (inactive) | GI50 (CAKI-1): > 100 µM (inactive) | GI50 (HCT-116): > 100 µM (inactive) | GI50 (RPMI-8226): > 100 µM (inactive) | GI50 (SNB-75): > 100 µM (inactive) | GI50 (MDA-N): 5.68 µM (inactive) | GI50 (SK-MEL-28): > 100 µM (inactive) | GI50 (COLO 205): > 100 µM (inactive) | GI50 (NCI-H522): > 100 µM (inactive) | GI50 (MDA-MB-435): 4.85 µM (inactive) | GI50 (EKVX): > 100 µM (inactive) | GI50 (UACC-62): > 100 µM (inactive) | GI50 (UACC-257): > 100 µM (inactive) | GI50 (T47D): > 100 µM (inactive) | GI50 (HCC 2998): > 100 µM (inactive) | GI50 (ACHN): > 100 µM (inactive) | GI50 (MDA-MB-231): > 100 µM (inactive) | GI50 (Hs-578T): > 100 µM (inactive) | GI50 (OVCAR-3): > 100 µM (inactive) | GI50 (NCI-H460): > 100 µM (inactive) | GI50 (HT-29): > 100 µM (inactive) | GI50 (U-251): > 100 µM (inactive) | GI50 (SF-268): > 100 µM (inactive) | GI50 (Malme-3M): > 100 µM (inactive) | GI50 (MOLT-4): > 100 µM (inactive) | GI50 (786-0): > 100 µM (inactive) | GI50 (SK-MEL-5): > 100 µM (inactive) | GI50 (BT-549): > 100 µM (inactive) | GI50 (SK-MEL-2): > 100 µM (inactive) | GI50 (CCRF-CEM): > 100 µM (inactive) | GI50 (UO-31): > 100 µM (inactive) | GI50 (SF-295): > 100 µM (inactive) | GI50 (A549): > 100 µM (inactive) | GI50 (OVCAR-4): > 100 µM (inactive) | GI50 (OVCAR-5): > 100 µM (inactive) | GI50 (TK-10): > 100 µM (inactive) | GI50 (NCI/ADR-RES): > 100 µM (inactive) | GI50 (M14): > 100 µM (inactive)

Brc1ccc(/N=N/N2CCCCC2)cc1
GI50 (KM12): 27 µM (inactive) | GI50 (HOP-92): 33.6 µM (inactive) | GI50 (LOX IMVI): 35.7 µM (inactive) | GI50 (HCT-15): 27.5 µM | GI50 (NCI-H23): 62.1 µM (inactive) | GI50 (MCF7): 35.5 µM (inactive) | GI50 (SW-620): 52.7 µM (inactive) | GI50 (SR): 16.6 µM (inactive) | GI50 (IGROV-1): 44.6 µM (inactive) | GI50 (SK-OV-3): > 100 µM (inactive) | GI50 (OVCAR-8): 45.6 µM (inactive) | GI50 (DU-145): > 100 µM (inactive) | GI50 (A498): 57.5 µM (inactive) | GI50 (HOP-62): 67 µM (inactive) | GI50 (K562): 27.4 µM (inactive) | GI50 (PC-3): 35.2 µM (inactive) | GI50 (RXF 393): 38.3 µM (inactive) | GI50 (NCI-H226): > 100 µM (inactive) | GI50 (SN12C): 57.9 µM (inactive) | GI50 (SNB-19): > 100 µM (inactive) | GI50 (CAKI-1): 88.1 µM (inactive) | GI50 (HCT-116): 34.2 µM (inactive) | GI50 (RPMI-8226): 14.1 µM (inactive) | GI50 (SNB-75): 41.9 µM (inactive) | GI50 (MDA-N): 57.3 µM (inactive) | GI50 (COLO 205): 69.3 µM (inactive) | GI50 (NCI-H522): 24 µM (inactive) | GI50 (MDA-MB-435): 34.3 µM (inactive) | GI50 (EKVX): 40.1 µM (inactive) | GI50 (UACC-62): 72.9 µM (inactive) | GI50 (UACC-257): 49.3 µM (inactive) | GI50 (T47D): 42.3 µM (inactive) | GI50 (ACHN): 76.6 µM (inactive) | GI50 (MDA-MB-231): > 100 µM (inactive) | GI50 (Hs-578T): 65.5 µM (inactive) | GI50 (OVCAR-3): 42.1 µM (inactive) | GI50 (NCI-H460): 45 µM (inactive) | GI50 (U-251): 54 µM (inactive) | GI50 (SF-268): 66.1 µM (inactive) | GI50 (MOLT-4): 19.9 µM (inactive) | GI50 (786-0): 44.3 µM (inactive) | GI50 (SK-MEL-5): 34.5 µM (inactive) | GI50 (BT-549): 98.2 µM (inactive) | GI50 (SK-MEL-2): 20.3 µM (inactive) | GI50 (SF-539): > 100 µM (inactive) | GI50 (CCRF-CEM): 22.2 µM (inactive) | GI50 (UO-31): 60 µM (inactive) | GI50 (SF-295): 35.6 µM (inactive) | GI50 (OVCAR-4): 74.8 µM (inactive) | GI50 (OVCAR-5): 80.7 µM (inactive) | GI50 (TK-10): 59.2 µM (inactive) | GI50 (NCI/ADR-RES): 51.3 µM (inactive) | GI50 (M14): 85.9 µM (inactive)
